How the values were obtained:
Assay type in all cases: in vivo
Boophilus microplus [1] = assay: Boophilus microplus - injection test; conditions: 20 μg/animal, injected into engorged adult female cattle ticks, after 7 days
Protocol: (§1) Solvent: dimethyl sulphoxide
(§2) To produce an appropriate active ingredient formulation, 10 mg of active ingredient are mixed with 0.5 ml of solvent and the concentrate is diluted with solvent to the desired concentration.
(§3) 1 μl of the active ingredient solution is injected into the abdomen of 5 engorged adult female cattle ticks (Boophilus microplus). The animals are transferred into dishes and kept in a climate-controlled room.
(§4) Efficacy is assessed after 7 days by laying of fertile eggs. Eggs which are not visibly fertile are stored in a climate-controlled cabinet until the larvae hatch after about 42 days. An efficacy of 100% means that none of the ticks has laid any fertile eggs; 0% means that all the eggs are fertile.

Musca domestica [2] = assay: Musca domestica test (MUSCDO); conditions: 20 ppm, adult houseflies, after 2 days
Protocol: as §1
(§5) To produce an appropriate active ingredient formulation, 10 mg of active ingredient are mixed with 0.5 ml of dimethyl sulphoxide, and the concentrate is diluted with water to the desired concentration.
(§6) Vessels containing a sponge treated with sugar solution and the active ingredient formulation of the desired concentration are populated with 10 adult houseflies (Musca domestica).
After 2 days, the kill in % is determined 100% means that all of the flies have been killed or knocked down; 0% means that none of the flies have been killed or knocked down.

Ctenocephalides felis [3] = assay: Ctenocephalides felis - in vitro contact tests with adult cat fleas; conditions: 5 μg/cm^2, adult cat fleas, after 48 h
Protocol: For the coating of the test tubes, 9 mg of active ingredient are first dissolved in 1 ml of acetone p.a. and then diluted to the desired concentration with acetone p.a. 250 μl of the solution are distributed homogeneously on the inner walls and base of a 25 ml test tube by turning and rocking on an orbital shaker (rocking rotation at 30 rpm for 2 h). With 900 ppm active ingredient solution and internal surface area 44.7 cm^2, given homogeneous distribution, an area-based dose of 5 μg/cm^2 is achieved.
After the solvent has evaporated off, the tubes are populated with 5-10 adult cat fleas (Ctenocephalides felis), sealed with a perforated plastic lid and incubated in a horizontal position at room temperature and ambient humidity. After 48 h, efficacy is determined. To this end, the test tubes are stood upright and the fleas are knocked to the base of the tube. Fleas which remain motionless at the base or move in an uncoordinated manner are considered to be dead or moribund.
100% efficacy means that all the fleas were dead or moribund. 0% efficacy means that no fleas were harmed.

Lucilia cuprina = Lucilia cuprina test (LUCICU); conditions: 20 ppm, L1 larvae, after 2 days
Protocol: as §1, §5
About 20 L1 larvae of the Australian sheep blowfly (Lucilia cuprina) are transferred into a test vessel containing minced horsemeat and the active ingredient preparation of the desired concentration.
After 2 days, the kill in % is determined 100% means that all the larvae have been killed; 0% means that none of the larvae have been killed.

Tetranychus urticae = Tetranychus urticae - spray test, OP-resistant; conditions: 100 g/ha, bean leaf discs, after 6 days
Protocol: Solvent: 78.0 parts by weight of acetone
• 1.5 parts by weight of dimethylformamide Emulsifier: alkylaryl polyglycol ether
To produce an appropriate active ingredient formulation, 1 part by weight of active ingredient is dissolved using the specified parts by weight of solvent and made up with water containing an emulsifier concentration of 1000 ppm until the desired concentration is attained. To produce further test concentrations, the preparation is diluted with emulsifier-containing water.
Discs of bean leaves (Phaseolus vulgaris) infested by all stages of the greenhouse red spider mite (Tetranychus urticae) are sprayed with an active ingredient formulation of the desired concentration.
After 6 days, efficacy in % is determined 100% means that all the spider mites have been killed; 0% means that none of the spider mites have been killed.

Ctenocephalides felis [4] = assay: Ctenocephalides felis - oral test (CTECFE); conditions: 20 ppm in citrated cattle blood, adult cat fleas, after 2 days
Protocol: as §1
(§7) For the purpose of producing an appropriate active ingredient formulation, 10 mg of active ingredient are mixed with 0.5 ml of dimethyl sulphoxide. Dilution with citrated cattle blood gives the desired concentration.
(§8) About 20 unfed adult cat fleas (Ctenocephalides felis) are placed into a chamber which is closed at the top and bottom with gauze. A metal cylinder whose bottom end is closed with parafilm is placed onto the chamber. The cylinder contains the blood/active ingredient preparation, which can be imbibed by the fleas through the parafilm membrane.
(§9) After 2 days, the kill in % is determined 100% means that all of the fleas have been killed; 0% means that none of the fleas have been killed.

Boophilus microplus [5] = assay: Boophilus microplus - injection test (BBOMI Inj); conditions: 4 μg/animal, injected into engorged adult female cattle ticks, after 7 days
Protocol: as §1, §2, §3, §4

Rhipicephalus sanguineus = Rhipicephalus sanguineus - in vitro contact tests with adult brown dog ticks; conditions: 5 μg/cm^2, adult dog ticks, after 48 h
Protocol: For the coating of the test tubes, 9 mg of active ingredient are first dissolved in 1 ml of acetone p.a. and then diluted to the desired concentration with acetone p.a. 250 μl of the solution are distributed homogeneously on the inner walls and base of a 25 ml test tube by turning and rocking on an orbital shaker (rocking rotation at 30 rpm for 2 h). With 900 ppm active ingredient solution and internal surface 44.7 cm^2, given homogeneous distribution, an area-based dose of 5 μg/cm^2 is achieved.
After the solvent has evaporated off, the tubes are populated with 5-10 adult dog ticks (Rhipicephalus sanguineus), sealed with a perforated plastic lid and incubated in a horizontal position in the dark at room temperature and ambient humidity. After 48 h, efficacy is determined To this end, the ticks are knocked to the floor of the tube and incubated on a hotplate at 45-50° C. for not more than 5 min Ticks which remain motionless on the floor or move in such an uncoordinated manner that they are unable to deliberately avoid the heat by climbing upwards are considered to be dead or moribund.
An efficacy of 100% means that all the ticks were dead or moribund. 0% efficacy means that none of the ticks had been harmed.

[6] = test system: Aedes aegypti strain MONHEIM; assay: Aedes test (AEDSAE surface treatment); conditions: read-out: efficacy (mortality in %)
Protocol: Solvent: acetone+2000 ppm rapeseed oil methyl ester (RME)
To produce an appropriate active ingredient formulation, the active ingredient is dissolved in the solvent (2 mg/ml). The active ingredient formulation is pipetted onto a glazed tile and, after it has dried off, adult mosquitoes of the species Aedes aegypti strain MONHEIM are placed onto the treated tile. The exposure time is 30 minutes.
24 hours after contact with the treated surface, mortality in % is determined 100% means that all mosquitoes have been killed; 0% means that none of the mosquitoes have been killed.

Musca domestica [7] = assay: Musca domestica - test; conditions: 100 ppm, adult houseflies, after 2 days
Protocol: as §1, §5, §6
After 2 days, the kill in % is determined 100% means that all of the flies have been killed; 0% means that none of the flies have been killed.

Ctenocephalides felis [8] = assay: Ctenocephalides felis - oral test; conditions: 100 ppm in citrated cattle blood, adult cat fleas, after 2 days
Protocol: as §1, §7, §8, §9

Which results are given for Cc1cc(C(F)(C(F)(F)F)C(F)(F)F)cc(C)c1-c1cn(-c2ccc(Cl)c(C(=O)NC3CC3)c2)nn1 [I-T48-1, 2-chloro-N-cyclopropyl-5-[4-[2,6-dimethyl-4-[1,2,2,2-tetrafluoro-1-(trifluoromethyl)ethyl]phenyl]triazol-1-yl]benzamide]?
efficacy (no fertile eggs laid) (Boophilus microplus [1]): 100%; efficacy (killed or knocked down) (Musca domestica [2]): 100%; efficacy (dead or moribund) (Ctenocephalides felis [3]): 100%; efficacy (kill in %) (Lucilia cuprina): 100%; efficacy (spider mites killed) (Tetranychus urticae): 100%; efficacy (kill in %) (Ctenocephalides felis [4]): 100%; efficacy (no fertile eggs laid) (Boophilus microplus [5]): 100%; efficacy (dead or moribund) (Rhipicephalus sanguineus): 100%; mortality at 20 mg/m2 [6]: 90 to 100%; mortality at 100 mg/m2 [6]: 90 to 100%; efficacy (kill in %) (Musca domestica [7]): 100%; efficacy (kill in %) (Ctenocephalides felis [8]): 100%
